pIC50: −log10 of the molar value.
Assays:
[1] = biological target: T1, cloned human 5-HT2C receptor (Homo sapiens, UniProt P28335); assay: Human 5-HT2C receptor binding assay; settings: [3H]mesulergine (1 nM) displacement, CHO-K1 cell membranes; read-out: 5-HT2C pKi (converted)
T1 construct: purchased Euroscreen; host or cells: CHO-K1
T1 sequence (P28335 33-458): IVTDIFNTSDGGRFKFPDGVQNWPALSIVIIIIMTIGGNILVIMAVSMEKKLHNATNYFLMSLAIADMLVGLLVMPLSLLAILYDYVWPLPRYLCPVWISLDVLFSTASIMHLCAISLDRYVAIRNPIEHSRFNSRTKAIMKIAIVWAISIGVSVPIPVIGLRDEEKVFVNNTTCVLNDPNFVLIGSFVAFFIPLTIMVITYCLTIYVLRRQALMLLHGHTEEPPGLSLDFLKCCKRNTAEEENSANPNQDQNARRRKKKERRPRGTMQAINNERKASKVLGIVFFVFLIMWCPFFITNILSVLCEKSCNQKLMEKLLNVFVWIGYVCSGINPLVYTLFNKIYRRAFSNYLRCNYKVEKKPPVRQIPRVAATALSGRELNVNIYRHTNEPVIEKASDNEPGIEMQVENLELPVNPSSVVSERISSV
Method in brief: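 CHO-K1 cell membranes expressing the receptor (6 μg) competed against [^3H]mesulergine (1 nM) in 50 mM Tris-HCl pH 7.7, 0.1% ascorbic acid, 10 μM pargyline for 30 min at 37° C; compounds 1×10^−10 to 1×10^−4M. Nonspecific binding with 100 μM mianserin; filtration and scintillation counting. IC50 converted to Ki using saturation-derived Kd.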

[2] = biological target: T2, human cloned 5-HT2B receptors (Homo sapiens, UniProt P41595); assay: Human cloned 5-HT2B cell-based functional assay; settings: inhibition of 5-HT response, Fluo-4 AM, CHO.K1 cells expressing cloned 5-HT2B receptor
T2 construct: expressed in transfected cells; host or cells: CHO-K1
Procedure: The following describes an in vitro functional assay using human cloned 5-HT2B receptors to determine the ability of compounds to block the receptor. CHO.K1 cells expressing cloned 5-HT2B receptor were maintained In Ultra-CHO medium containing 400 μg/ml of G418, 1000 U/ml penicillin, 100 μg/ml streptomycin, 2.5 μg/ml fungizone, in 95/5% O2/CO2 at 37° C. Ultra-CHO medium additionally supplemented with 1% foetal bovine serum was used when seeding the cells and removed after 5 hours. Cells were plated in Costar 96 well white, clear-bottomed plate at a density of 50,000 cells per well and incubated for at least 24 hours in 95/5% O2/CO2 at 37° C. before running the assay. Media was removed from the wells and 200 μl of 4 μM Fluo-4 AM added, this was incubated in a Wallace Victor 2V workstation at 37° C. for 30 minutes. The Fluo-4 AM was then removed from the wells, which were then washed twice with 200 μl of buffer (HBSS without calcium/magnesium/phenol red, 20 mM HEPES, 1 mM Ca^2+, 1 mM Mg^2+, 2.5 mM probenecid, pH to 7.4), 180 μl of buffer or test compound was added to the well and incubated for 30 minutes. The Victor 2V injectors were used to inject 20 μl of 5-HT after obtaining 10 0.1-second baseline readings at 535 nm, followed by 150 readings. All test compounds were aliquoted in 100% DMSO at 10 mM and diluted to 1 mM in 50% DMSO, subsequent dilutions were made using buffer. Buffer was also used to dilute the 5-HT. Data were analysed using Microsoft Excel and GraphPad Prism, with the latter used to produce sigmoidal dose-response curves for each compound. The compound concentration that inhibited the 5-HT response by 50% was taken (IC50-M), and the results are shown in Table 2, as pIC50, being the negative log (to the base 10) of the measured IC50 values.

[3] = biological target: T2, human cloned 5-HT2B receptors; assay: Human cloned 5-HT2B receptor binding assay; settings: [3H]LSD (1 nM) displacement, membranes of CHO-K1 cells expressing cloned 5-HT2B receptor; read-out: 5-HT2B pKi (converted)
Method in brief: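 Membranes from CHO-K1 cells expressing cloned receptor incubated 30 min at 37 °C with 1 nM [3H]LSD, 10 μM pargyline and compound (1×10^−10 to 1×10^−4 M) in 50 mM Tris-HCl pH 7.4, 4 mM CaCl2. Nonspecific binding with 100 μM 5-HT; filtration and scintillation counting, IC50 converted to Ki using Kd from saturation binding.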

[4] = biological target: T3, cloned human 5-HT2A receptor (Homo sapiens, UniProt P28223); assay: Human 5-HT2A receptor binding assay; settings: [3H]ketanserin (1 nM) displacement, CHO-K1 cell membranes; read-out: 5-HT2A pKi (converted)
T3 construct: purchased Euroscreen; host or cells: CHO-K1
Method in brief: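 Competition binding with 15 μg membranes from CHO-K1 cells expressing cloned human receptor, 1 nM [3H]ketanserin, 10 μM pargyline, 50 mM Tris pH 7.4, compounds 1×10^−10 to 1×10^−4 M; 100 μM mianserin defined nonspecific binding. Incubated 15 min at 37 °C, filtered, counted; IC50 converted to Ki using saturation-derived Kd.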

T2 sequence (P41595 whole entry): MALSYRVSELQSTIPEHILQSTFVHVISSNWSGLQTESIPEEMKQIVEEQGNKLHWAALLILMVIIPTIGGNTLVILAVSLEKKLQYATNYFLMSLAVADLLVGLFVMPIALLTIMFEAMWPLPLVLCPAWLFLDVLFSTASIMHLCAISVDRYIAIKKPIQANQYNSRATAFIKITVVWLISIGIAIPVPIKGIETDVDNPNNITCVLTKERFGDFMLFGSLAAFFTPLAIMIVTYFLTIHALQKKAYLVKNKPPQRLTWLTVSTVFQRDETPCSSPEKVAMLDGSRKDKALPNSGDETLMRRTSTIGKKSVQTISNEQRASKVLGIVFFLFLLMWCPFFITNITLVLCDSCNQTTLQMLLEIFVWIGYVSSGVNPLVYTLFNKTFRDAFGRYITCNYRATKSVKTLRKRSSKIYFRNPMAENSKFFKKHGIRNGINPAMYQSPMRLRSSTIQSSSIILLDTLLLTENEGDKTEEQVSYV
T3 sequence (P28223 whole entry): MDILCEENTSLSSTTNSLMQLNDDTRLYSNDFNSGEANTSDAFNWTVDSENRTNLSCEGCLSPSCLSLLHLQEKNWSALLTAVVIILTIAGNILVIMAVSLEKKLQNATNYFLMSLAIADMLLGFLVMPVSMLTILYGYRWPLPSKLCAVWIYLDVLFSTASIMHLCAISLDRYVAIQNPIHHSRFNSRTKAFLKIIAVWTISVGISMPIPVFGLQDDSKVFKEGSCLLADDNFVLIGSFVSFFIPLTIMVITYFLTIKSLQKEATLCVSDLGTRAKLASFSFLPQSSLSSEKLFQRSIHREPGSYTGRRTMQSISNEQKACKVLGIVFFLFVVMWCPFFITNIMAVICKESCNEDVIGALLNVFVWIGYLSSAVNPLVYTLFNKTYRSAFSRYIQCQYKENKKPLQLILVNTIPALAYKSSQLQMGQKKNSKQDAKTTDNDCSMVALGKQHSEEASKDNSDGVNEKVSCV

SMILES: COc1ccc2ccccc2c1-c1nc(N)[nH]c1C [Compound 104J, 4-(2-Methoxy-naphthalen-1-yl)-5-methyl-1H-imidazol-2-ylamine]
- Ki [1]: > 100 nM
- pIC50 [2]: > 7.00
- Ki [3]: < 100 nM
- Ki [4]: > 316 nM

— patent publication US20090018150A1, “5-Ht2b Receptor Antagonists” (ASTERAND UK LIMITED, priority 2003, published 2009)
